Data set [1] deals with untreated dogs. In kind it is in vivo, dog. The protocol:
Recombinant human TNF specific activity 2×10^7 units/mg, was from the Niposn Chemical Corporation, Tokyo, Japan. TNF was administered at a dose of 10 mcg/kg in a volume of 10 ml of phosphate buffered saline containing 2 mgs/ml of dog albumin. […] Arginine was obtained from Sigma Chemical Company, St. Louis, Mo.
Four conditioned mongrel dogs, 2 males and 2 females, weighing 28 to 30 kgs, were studied. Care of the animals were in accordance with the recommendation of the American Association for Accreditation of Laboratory Animals [DHEW(DHHS) publication no. (NIH) 78-23, revised, 1978]. On the day of the experiment, the dogs were fasted overnight. They were anesthetized with phenobarbital (10 mg/kg). They were then intubated orally with a #10 fr. endotracheal tube and ventilated with a Harvard pump ventilator at a rate of 12 breaths per minute and a tidal volume of 15 ml/kg. An arterial line was percutaneously placed in the femoral artery on the day of the experiment.
Mean (electronic) and phasic systemic arterial pressures (SAP) were continuously recorded on a Hewlett-Packard recording system (model 7758B) using strain gauge manometers (Hewlett-Packard model 1290A) which were connected to the arterial line. Heart rate (HR) was determined from an EKG tracing and continuously recorded on the Hewlett-Packard recording system. Oxyhemoglobin saturation (SaO2) was obtained using a pulse oximeter (BIOX 111, Boulder, Colo.). continuous time-series records of SAP, HR, and SaO2 were obtained using a Lab Master analog-to-digital convertor (16 channel, 12 bit, 30 kHz; Scientific Solutions, Inc.) sampling at 55 Hz and storing the 6 sec averages on a magnetic disk.
This was followed by a compensatory decrease in the HR with a return of the BP to baseline. The NMMA-induced bradycardia lasted 31 minutes. This response was not observed in animals which had been previously treated with TNF. In a subsequent experiment (FIG. 7a) the hypotensive response to TNF was especially severe, with a decrease in BP from 125 mm to 36 mmHg. […] This was associated with a decrease in the HR from 101 to 92 beats/minute. […] In a second control study nitroglycerin was infused at a rate of 28 μg/kg/minute, IV, to lower the blood pressure to the same level as that observed with tumor necrosis factor (FIG. 7c).

For a further data set, the system named is rat aorta. Description: ACh-induced relaxation of rat aorta. The note with it: NMMA 5 μM. Here is the method: Guinea pig pulmonary artery (GP PA), rat and rabbit aorta (Ao), and dog coronary (CA) and femoral artery (FA) were precontracted with NE (1 μM) and relaxed with a single concentration of ACh. Concentration of ACh: GP PA 1 μM, rat Ao […], rabbit Ao 0.3, dog CA […] and […] 0.1 μM. […] The concentrations of L-citrulline (L-cit), D-arginine (D-arg) and L-arginine (L-arg) were all 0.5 mM. Bars are mean values±SEM (n=4-6).

The test system of data set [2] is bovine aortic endothelial cells (BAEC). Description: A23187-stimulated nitrite release from bovine aortic endothelial cells. The data set is classed as cell-based. Conditions: 3 μg/ml A23187, 4-hour, FIG. 12. Here is the method:
The % inhibition of relaxation is calculated from the maximum ACh-induced relaxation observed in the presence of the arginine analog relative to that in its absence. Points represent mean values±SEM (n=4-6). […] Another N^G substitution tested for inhibition of induced nitrite release had two methyl groups on one of the arginine guanidino nitrogens. Concentration-response relationships for inhibition of A23187-stimulated nitrite release by bovine aortic endothelial cells (BAEC) are shown in FIG. 9a for the N,N-disubstituted derivative in comparison with several monosubstituted derivatives. Nitrite production was measured as an indication of nitric oxide synthesis since nitric oxide spontaneously decays to nitrite. Nitrite production by BAEC in a 2-hr. period was assessed in an L-arginine-free medium alone or in the presence of the indicated concentration of arginine analogs. The points plotted represent means±S.E. of the percent inhibition of nitrite production observed in 3 individual BAEC culture wells. The key on FIG. 9a indicates the groups substituted on the guanidino nitrogens of L-arginine.
Points are mean values±SEM (n=3).

For a further data set, the system named is anesthetized guinea pig. Kind of data set: Pressor effect in the anesthetized guinea pig. The note with it: 1-10 mg/kg i.v. (L-NMA). The data set is classed as in vivo. The source says: Points are mean changes in diastolic arterial pressure (±SEM; n=4-5). Control systolic and diastolic BP was 75±3 and 51±3 mm Hg, respectively.
The target in data set [3] is EMT6 enzyme system (NO formation from L-arginine) (Mus musculus, UniProt P29477). Kind of data set: Arginine-dependent nitrite synthesis by cytosol of stimulated EMT6 cells. In kind it is biochemical, murine. Conditions: Lineweaver-Burke.
Description: Thus EMT6 cytosolic preparations (i.e., cell-free solutions) were prepared and an enzyme activity was characterized which forms NO and citrulline from arginine. This reaction requires NADPH (FIG. 18 and 19) and other cofactors.
Incubation mixtures were 100 μl total volume containing: 40 μl cytosol (100,000×g supernatant), 2 mM L-arginine, 2 mM NADPH, 20 mM TRIS (pH 8.0) and a "cocktail" of protease inhibitors.
From kinetic studies an apparent Michaelis-Menton constant for L-arginine utilization by the enzyme was deduced. FIG. 20 is a Lineweaver-Burke plot for synthesis of nitrite from L-arginine by cytosol from stimulated EMT6 cells. The rate of nitrite formation was evaluated over a range of L-arginine (ARG) concentrations (from 0.03-2.0 mM) under conditions similar to that described for FIG. 18, except that incubates contained 50 μl cytosol in a total volume of 80 μl. Open and filled circles represent results obtained with each of two cytosol preparations. […] N^G -substituted arginine analogs were screened for precise quantitation of their ability to inhibit arginine-dependent NO formation by the EMT6 enzyme system.
Data set [4] has as its system untreated dogs. Description: NMMA in untreated dogs (Example 5). In kind it is in vivo, dog. The protocol: Administration of ET to dogs was clearly more toxic and less predictable than TNF administration. […] Within 1.5 minutes the blood pressure increased by 33±2.5 mmHg.
In the next data set the test system is L929 cells. Kind of data set: Cytolytic activity of rh-TNF against Actinomycin D-treated L929 cells. The data set is classed as cell-based, murine. The protocol: TNF bioactivity was measured by the cytotoxicity towards murine L929 cells, in vitro.
The subject of data set [5] is human LAK cells against Raji target cells. Description: IL-2 mediated lymphokine activated killer cell activity in vitro. The data set is classed as cell-based.
Description: *% Lysis calculated from the % of release of radioactivity from ^51
Crlabeled Raji Target cells minus spontaneous release.
Data set [6] has as its system murine endothelial cells exposed to Gamma-Interferon and TNF (nitric oxide production). The note with it: mouse endothelial cells, immunomodulators and endotoxin; cited from earlier work.
The test system of data set [7] is mongrel dogs with TNF-induced hypotension. Conditions: Kilbourn et al. 1990; listed as L-NMA; cited from earlier work.
The test system of data set [8] is systemic hypotension mediated by interleukin-1. Description: Interleukin-1 mediated systemic hypotension. Conditions: after N^G-aminoarginine. The data set is classed as in vivo.

Entries after “also recorded” stand apart in the source; their conditions may differ.

EMT6 enzyme system (NO formation from L-arginine), sequence (P29477 whole entry): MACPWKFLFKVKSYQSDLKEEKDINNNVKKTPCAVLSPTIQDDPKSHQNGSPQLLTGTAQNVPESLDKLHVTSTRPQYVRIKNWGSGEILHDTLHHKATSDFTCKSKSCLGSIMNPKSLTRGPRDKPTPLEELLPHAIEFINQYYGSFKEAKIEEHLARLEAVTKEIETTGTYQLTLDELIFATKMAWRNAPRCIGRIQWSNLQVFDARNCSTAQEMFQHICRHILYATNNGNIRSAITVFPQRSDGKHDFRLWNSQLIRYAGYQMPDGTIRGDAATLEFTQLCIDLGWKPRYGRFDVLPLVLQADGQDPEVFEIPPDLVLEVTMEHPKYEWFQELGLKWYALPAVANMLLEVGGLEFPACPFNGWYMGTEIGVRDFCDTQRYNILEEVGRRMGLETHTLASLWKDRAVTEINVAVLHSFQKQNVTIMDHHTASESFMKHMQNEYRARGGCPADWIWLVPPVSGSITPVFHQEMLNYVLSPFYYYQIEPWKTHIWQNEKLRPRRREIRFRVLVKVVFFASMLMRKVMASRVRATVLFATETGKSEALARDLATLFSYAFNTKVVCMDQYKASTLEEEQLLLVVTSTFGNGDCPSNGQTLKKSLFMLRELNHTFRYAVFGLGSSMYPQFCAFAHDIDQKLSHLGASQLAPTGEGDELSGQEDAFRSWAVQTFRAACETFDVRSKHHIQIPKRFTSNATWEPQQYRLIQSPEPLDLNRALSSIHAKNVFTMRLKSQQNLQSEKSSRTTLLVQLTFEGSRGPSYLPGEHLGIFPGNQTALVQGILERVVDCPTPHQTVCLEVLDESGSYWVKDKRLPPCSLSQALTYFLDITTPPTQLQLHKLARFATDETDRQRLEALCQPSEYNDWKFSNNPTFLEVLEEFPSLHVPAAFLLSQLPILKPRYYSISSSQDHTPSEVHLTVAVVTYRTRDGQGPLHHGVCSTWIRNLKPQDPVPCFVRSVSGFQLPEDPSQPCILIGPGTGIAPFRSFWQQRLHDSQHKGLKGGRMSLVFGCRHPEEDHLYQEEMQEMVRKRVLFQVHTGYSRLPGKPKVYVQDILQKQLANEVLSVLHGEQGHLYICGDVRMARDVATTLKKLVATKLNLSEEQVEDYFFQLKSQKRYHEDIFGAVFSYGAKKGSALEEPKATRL

For the compound `CNC(=N)NCCC[C@H](N)C(=O)O` [NMMA, N^G -methyl-L-arginine], the “duration of NMMA-induced bradycardia” value in the data set with untreated dogs [1] (dog, in vivo) came out at 31 min. Also, the “time to initial blood pressure increase” value in the data set with untreated dogs [1] (untreated dogs (n=3), NMMA alone) was ≤ 1.7 min. The “time within which blood pressure increased” value in the data set with untreated dogs [1] (untreated dogs, FIG. 7b) was ≤ 2 min. Further, in the data set with untreated dogs [1] (untreated dogs, FIG. 7b, within 2 minutes), the “blood pressure increase by NMMA” value is recorded as 12 mmHg. The “HR after NMMA” value with untreated dogs [1] (untreated dogs, FIG. 7b, decrease from 101) is on record as 92 beats/minute. For the same compound, the “inhibition of EDRF/NO in vascular preparation” value in the data set on rat aorta was “arginine reversible inhibitor of EDRF/NO”. In addition, the “effect on EDRF/NO (nitrite) release” value in data set [2] is “inhibits EDRF/NO release”. Further, the figures for the “effect on diastolic BP / pressor effect (words)” value with anesthetized guinea pig and in the data set on anesthetized guinea pig (listed as L-NMA) were “increase the resting blood pressure” and “sustained rise in diastolic BP”, respectively. For the same compound, the mode of inhibition result in data set [3] was “competitive inhibitor”. Further, the “increase in blood pressure by NMMA” value in the data set on untreated dogs [4] (normal untreated dog, compared with 20 mg/kg NMMA in lethal shock) came out at 35 mm; in the data set on untreated dogs [4] (untreated animals), 12 mm Hg. In addition, the “TNF Activity” value in the data set on L929 cells ([NMMA] 0.125 mM) was determined as 536.9 Units/ml; with L929 cells ([NMMA] 0.250 mM) it was 538.2 Units/ml; in the data set with L929 cells ([NMMA] 0.500 mM), 562.4 Units/ml; in the data set on L929 cells ([NMMA] 1.0 mM), 415.7 Units/ml. In addition, the “effect on cytolytic effect of TNF towards tumor cells” value in the data set on L929 cells (murine L929 cells, in vitro) is reported as “did not alter the cytolytic effect of TNF”. The “% Target Cell Lysis” value in [5] ([NMMA] 2.0 mM, E:T = 80:1, 40 U/ml IL2) is 75.1 ± 4.1%. Further, in [5] (exposed to IL-2, in vitro), the “effect on proliferation phase or lytic phase of LAK cells” value is listed as “did not alter”. The “anti-tumor activity of IL-2 in vitro” value in [5] (in vitro) is given as “does not inhibit the anti-tumor activity”. The “effect on nitrite accumulation” value in [6] is “blocked”. In [7], the “reversal of TNF-induced hypotension” value is listed as “completely reversed; also recorded: substantially reversed”.

On to `N=C(N)NCCC[C@H](N)C(=O)O` [L-arginine, reference compound], for which the “effect of L-arginine on the reversal” value in data set [8] is on record as “obviated this reversal”.

(Values after patent US5770623A, “Argine antagonists for inhibition of systemic hypotension associated with nitric oxide production or endothelial derived relaxing factor” (Board of Regents, The University of Texas System, priority 1995, dated 1998).)
